Consider eleven molecules from ChEMBL document CHEMBL1649544, “Novel ABC transporter gene, vga(C), located on a multiresistance plasmid from a porcine methicillin-resistant Staphylococcus aureus ST398 strain” (2009).

In brackets after ≈: the same amount, converted by molar mass.

As a reminder, the MIC is the lowest concentration found to suppress growth. The low end stands for inhibition by little substance, the high end for a need for much substance.

Holding throughout (assay type): functional
Experiment [1] concerns Staphylococcus aureus. The experiment in a line: Antibacterial activity against Staphylococcus aureus RN4220 by CLSI method.
In experiment [2] the test system is Staphylococcus aureus. The experiment can be described thus: Antibacterial activity against Staphylococcus aureus RN4220 harboring aadD, tet(L), dfrK and vga(C) gene by CLSI method.
In experiment [3] the test system is Staphylococcus aureus. The experiment in a line: Antibacterial activity against Staphylococcus aureus RN4220 harboring tet(L), dfrK gene by CLSI method.
The test system of experiment [4] is Staphylococcus aureus. The experiment can be described thus: Antibacterial activity against Staphylococcus aureus RN4220 harboring aadD and tet(L) gene by CLSI method.

Take `C=C[C@]1(C)C[C@@H](OC(=O)CSCCN(CC)CC)[C@]2(C)[C@H](C)CC[C@]3(CCC(=O)[C@H]32)[C@@H](C)[C@@H]1O` [TIAMULIN]: the MIC against Staphylococcus aureus [1] was 0.06 µg/mL (≈ 0.122 µM); in the experiment on Staphylococcus aureus [2] it was at least 128 µg/mL; against Staphylococcus aureus [3] it was 0.06 µg/mL (≈ 0.122 µM); against Staphylococcus aureus [4], 0.06 µg/mL (≈ 0.122 µM).
Turning to `CC[C@H]1OC(=O)[C@H](C)[C@@H](O[C@H]2C[C@@](C)(OC)[C@@H](O)[C@H](C)O2)[C@H](C)[C@@H](O[C@@H]2O[C@H](C)C[C@H](N(C)C)[C@H]2O)[C@](C)(O)C[C@@H](C)C(=O)[C@H](C)[C@@H](O)[C@]1(C)O` [ERYTHROMYCIN], the MIC in the experiment with Staphylococcus aureus [1], in the experiment on Staphylococcus aureus [2], against Staphylococcus aureus [3] and against Staphylococcus aureus [4] was 0.25 µg/mL (≈ 0.341 µM) in each case.
Consider `NC[C@H]1O[C@H](O[C@H]2[C@H](O)[C@@H](O[C@H]3O[C@H](CO)[C@@H](O)[C@H](N)[C@H]3O)[C@H](N)C[C@@H]2N)[C@H](O)[C@@H](O)[C@@H]1O` [KANAMYCIN], for which the MIC in the experiment with Staphylococcus aureus [1] came to 4 µg/mL (≈ 8.26 µM); with Staphylococcus aureus [2], 32 µg/mL (≈ 66 µM); in the experiment on Staphylococcus aureus [3], 4 µg/mL (≈ 8.26 µM); in the experiment on Staphylococcus aureus [4] it was 32 µg/mL (≈ 66 µM).
For `COc1cc(Cc2cnc(N)nc2N)cc(OC)c1OC` [TRIMETHOPRIM], the MIC in the experiment with Staphylococcus aureus [1] is 0.5 µg/mL (≈ 1.72 µM); against Staphylococcus aureus [2] it was at least 512 µg/mL; in the experiment with Staphylococcus aureus [3] it was at least 512 µg/mL; in the experiment with Staphylococcus aureus [4], 0.5 µg/mL (≈ 1.72 µM).
Regarding `CN(C)[C@@H]1C(O)=C(C(N)=O)C(=O)[C@@]2(O)C(O)=C3C(=O)c4c(O)cccc4[C@@](C)(O)[C@H]3C[C@@H]12` [TETRACYCLINE], the minimal inhibitory concentration (MIC) against Staphylococcus aureus [1] is 0.06 µg/mL (≈ 0.135 µM); with Staphylococcus aureus [2], 64 µg/mL (≈ 144 µM); in the experiment on Staphylococcus aureus [3], 64 µg/mL (≈ 144 µM); in the experiment with Staphylococcus aureus [4], 64 µg/mL (≈ 144 µM).
Consider `CC1=C\[C@@H](O)CC(=O)Cc2nc(co2)C(=O)N2CCC=C2C(=O)O[C@H](C(C)C)[C@H](C)/C=C/C(=O)NC\C=C\1` [VIRGINIAMYCIN FACTOR M1], for which the MIC against Staphylococcus aureus [1] came to 4 µg/mL (≈ 7.61 µM); against Staphylococcus aureus [2], 32 µg/mL (≈ 60.9 µM); with Staphylococcus aureus [3], 4 µg/mL (≈ 7.61 µM); in the experiment with Staphylococcus aureus [4], 4 µg/mL (≈ 7.61 µM).
As to `CCC[C@@H]1C[C@@H](C(=O)N[C@@H]([C@H]2O[C@H](SC)[C@H](O)[C@@H](O)[C@H]2O)[C@@H](C)O)N(C)C1` [LINCOMYCIN], the minimal inhibitory concentration (MIC) against Staphylococcus aureus [1] amounted to 1 µg/mL (≈ 2.46 µM); against Staphylococcus aureus [2], 64 µg/mL (≈ 157 µM); against Staphylococcus aureus [3] it was 1 µg/mL (≈ 2.46 µM); in the experiment with Staphylococcus aureus [4], 1 µg/mL (≈ 2.46 µM).
Take `C=C[C@]1(C)C[C@@H](OC(=O)CSC(C)(C)CNC(=O)[C@H](N)C(C)C)[C@]2(C)[C@H](C)CC[C@]3(CCC(=O)[C@H]32)[C@@H](C)[C@@H]1O` [VALNEMULIN]: the MIC in the experiment on Staphylococcus aureus [1] was 0.03 µg/mL (≈ 0.0531 µM); in the experiment with Staphylococcus aureus [2] it was at least 128 µg/mL; in the experiment on Staphylococcus aureus [3], 0.03 µg/mL (≈ 0.0531 µM); with Staphylococcus aureus [4], 0.03 µg/mL (≈ 0.0531 µM).
`CCC[C@@H]1C[C@@H](C(=O)N[C@@H]([C@H]2O[C@H](SC)[C@H](O)[C@@H](O)[C@H]2O)[C@H](C)Cl)N(C)C1` [CLINDAMYCIN]: the MIC with Staphylococcus aureus [1] was at most 0.12 µg/mL; against Staphylococcus aureus [2], 2 µg/mL (≈ 4.71 µM).
For the molecule `NC[C@@H]1O[C@H](O[C@H]2[C@@H](O)[C@H](O[C@@H]3[C@@H](O)[C@H](N)C[C@H](N)[C@H]3O[C@H]3O[C@H](CN)[C@@H](O)[C@H](O)[C@H]3N)O[C@@H]2CO)[C@H](N)[C@@H](O)[C@@H]1O` [FRAMYCETIN], the MIC was at most 1 µg/mL against Staphylococcus aureus [1], 64 µg/mL (≈ 104 µM) with Staphylococcus aureus [2] and 64 µg/mL (≈ 104 µM) in the experiment with Staphylococcus aureus [4].
On to `CC[C@@H]1CCN[C@H](C(=O)N[C@@H]([C@H]2O[C@H](SC)[C@H](O)[C@@H](O)[C@H]2O)[C@H](C)Cl)C1` [PIRLIMYCIN], for which the MIC stood at 0.25 µg/mL (≈ 0.608 µM) in the experiment on Staphylococcus aureus [1], 4 µg/mL (≈ 9.73 µM) in the experiment on Staphylococcus aureus [2], 0.25 µg/mL (≈ 0.608 µM) with Staphylococcus aureus [3] and 0.25 µg/mL (≈ 0.608 µM) against Staphylococcus aureus [4].
